Several values for one entry are separate records, joined by “and”; a condition that tells them apart may be missing. Identical values can stand only once. Inconclusive results and toxic doses are left out. No stated cut-off is given here; in the data, active means T/C of 150% or more; inactive means T/C below 125%.
Tested on: L1210 leukemia ip in BDF1 mice, survival T/C
Assay: NCI In Vivo Anticancer Drug Screen. Data for tumor model L1210 Leukemia (intraperitoneal) in B6D2F1 (BDF1) mice
Conditions: endpoint: mean survival time, higher = longer survival
In short: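 Ratio derived from survival: compound-dosed mice over vehicle-dosed mice, all bearing a transplantable tumor.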

[1] = dose: 100.0 mg/kg/injection, schedule: Q01DX009 (ip), vehicle: Klucel (hydroxypropylcellulose) (HPC)
[2] = dose: 100.0 mg/kg/injection, schedule: Q04DX003 (ip), vehicle: Klucel (hydroxypropylcellulose) (HPC)
[3] = dose: 200.0 mg/kg/injection, schedule: Q01DX009 (ip), vehicle: Klucel (hydroxypropylcellulose) (HPC)
[4] = dose: 200.0 mg/kg/injection, schedule: Q04DX003 (ip), vehicle: Klucel (hydroxypropylcellulose) (HPC)
[5] = dose: 400.0 mg/kg/injection, schedule: Q01DX009 (ip), vehicle: Klucel (hydroxypropylcellulose) (HPC)
[6] = dose: 400.0 mg/kg/injection, schedule: Q04DX003 (ip), vehicle: Klucel (hydroxypropylcellulose) (HPC)
[7] = dose: 100.0 mg/kg/injection, schedule: Q04DX002 (ip), vehicle: Klucel (hydroxypropylcellulose) (HPC)
[8] = dose: 200.0 mg/kg/injection, schedule: Q04DX002 (ip), vehicle: Klucel (hydroxypropylcellulose) (HPC)
[9] = dose: 400.0 mg/kg/injection, schedule: Q04DX002 (ip), vehicle: Klucel (hydroxypropylcellulose) (HPC)
[10] = dose: 100.0 mg/kg/injection, schedule: Q01DX009 (ip), vehicle: saline with Tween-80
[11] = dose: 200.0 mg/kg/injection, schedule: Q01DX009 (ip), vehicle: saline with Tween-80
[12] = dose: 400.0 mg/kg/injection, schedule: Q01DX009 (ip), vehicle: saline with Tween-80
[13] = dose: 100.0 mg/kg/injection, schedule: Q04DX003 (ip), vehicle: saline with Tween-80
[14] = dose: 200.0 mg/kg/injection, schedule: Q04DX003 (ip), vehicle: saline with Tween-80
[15] = dose: 400.0 mg/kg/injection, schedule: Q04DX003 (ip), vehicle: saline with Tween-80
[16] = dose: 100.0 mg/kg/injection, schedule: Q01DX001 (ip), vehicle: saline
[17] = dose: 200.0 mg/kg/injection, schedule: Q01DX001 (ip), vehicle: saline
[18] = dose: 400.0 mg/kg/injection, schedule: Q01DX001 (ip), vehicle: saline
[19] = dose: 100.0 mg/kg/injection, schedule: Q01DX001 (ip), vehicle: saline with Tween-80
[20] = dose: 100.0 mg/kg/injection, schedule: Q01DX001 (ip), vehicle: other
[21] = dose: 200.0 mg/kg/injection, schedule: Q01DX001 (ip), vehicle: other
[22] = dose: 400.0 mg/kg/injection, schedule: Q01DX001 (ip), vehicle: other

Measured: T/C

O=C(NC(=S)Nc1ccc(F)cc1)c1cccc2ccccc12
inactive: [1] 96 % of control | [2] 104 % of control | [3] 91 % of control | [4] 100 % of control | [5] 101 % of control | [6] 97 % of control

CCOC(=O)CNc1cc(C)ccc1C
inactive: [7] 95 % of control | [8] 98 % of control | [9] 95 % of control

ClCCCN(CCCCl)c1ccc(C=Nc2cccc(Cl)c2)c(Cl)c1
inactive: [2] 101 % of control | [4] 102 % of control | [6] 95 % of control

CC(C)C(Br)C(=O)NC(Cc1ccccc1)C(=O)O (centres undefined)
inactive: [10] 96 % of control | [11] 96 % of control | [12] 92 % of control

CCSC(C(O)C(O)C(O)C(O)CO)n1ccc(=O)[nH]c1=O (centres undefined)
inactive: dose: 100.0 mg/kg/injection, schedule: Q01DX001 (ip), vehicle: Klucel (hydroxypropylcellulose) (HPC) 100 % of control | [2] 88 % of control | [13] 103 % of control | dose: 200.0 mg/kg/injection, schedule: Q01DX001 (ip), vehicle: Klucel (hydroxypropylcellulose) (HPC) 100 % of control | dose: 200.0 mg/kg/injection, schedule: Q01DX009 (ip), vehicle: saline 93 % of control | [4] 93 % of control | [14] 94 % of control | dose: 400.0 mg/kg/injection, schedule: Q01DX001 (ip), vehicle: Klucel (hydroxypropylcellulose) (HPC) 102 % of control | dose: 400.0 mg/kg/injection, schedule: Q01DX009 (ip), vehicle: saline 94 % of control | [6] 87 % of control | [15] 92 % of control

CC(C)(Br)C1CC(=O)C(C)(Br)C(Br)C1 (centres undefined)
inactive: [16] 98 % of control | [17] 101 % of control | [18] 101 % of control

Cc1ccc(NCc2ccccc2O)c(C)c1
inactive: dose: 100.0 mg/kg/injection, schedule: Q04DX003 (ip), vehicle: gum acacia 94 % of control | dose: 200.0 mg/kg/injection, schedule: Q04DX003 (ip), vehicle: gum acacia 101 % of control | dose: 400.0 mg/kg/injection, schedule: Q04DX003 (ip), vehicle: gum acacia 99 % of control

CC(=O)OC1CCCCC1c1cccc(C)c1 (centres undefined)
inactive: dose: 100.0 mg/kg/injection, schedule: Q04DX003 (ip), vehicle: acetone 110 % of control | dose: 200.0 mg/kg/injection, schedule: Q04DX003 (ip), vehicle: acetone 102 % of control | dose: 400.0 mg/kg/injection, schedule: Q04DX003 (ip), vehicle: acetone 98 % of control

CCOC(=O)CC(C)(C)CC(=O)C1CNC2=C(C1)C(=O)CC(C)(C)C2 (centres undefined)
inactive: dose: 100.0 mg/kg/injection, schedule: Q01DX005 (ip), vehicle: Klucel (hydroxypropylcellulose) (HPC) 102 % of control | [7] 89 % of control | dose: 200.0 mg/kg/injection, schedule: Q01DX005 (ip), vehicle: Klucel (hydroxypropylcellulose) (HPC) 118 % of control | [8] 92 % of control | dose: 400.0 mg/kg/injection, schedule: Q01DX005 (ip), vehicle: Klucel (hydroxypropylcellulose) (HPC) 91 % of control | [9] 97 % of control

CCC(C)(O)CC
inactive: [16] 97 % of control | [17] 110 % of control | [18] 110 % of control

CN(C)c1ccc(/C=N/NC(=O)c2ccc(O)cc2)c(Cl)c1
inactive: dose: 25.0 mg/kg/injection, schedule: Q01DX009 (ip), vehicle: saline with Tween-80 97 % of control and 103 % of control | dose: 50.0 mg/kg/injection, schedule: Q01DX001 (ip), vehicle: saline with Tween-80 86 % of control | dose: 50.0 mg/kg/injection, schedule: Q01DX009 (ip), vehicle: saline with Tween-80 102 % of control and 113 % of control | [19] 88 % of control | dose: 100.0 mg/kg/injection, schedule: Q04DX002 (ip), vehicle: saline with Tween-80 97 % of control and 98 % of control | [13] 104 % of control | dose: 200.0 mg/kg/injection, schedule: Q01DX001 (ip), vehicle: saline with Tween-80 94 % of control | dose: 200.0 mg/kg/injection, schedule: Q04DX002 (ip), vehicle: saline with Tween-80 97 % of control and 91 % of control | [14] 87 % of control | [12] 92 % of control | dose: 400.0 mg/kg/injection, schedule: Q04DX002 (ip), vehicle: saline with Tween-80 94 % of control and 90 % of control | [15] 95 % of control

OC1(c2ccccc2)c2cscc2C(O)(c2ccccc2)c2c(Cl)sc(Cl)c21 (centres undefined)
inactive: [19] 91 % of control | dose: 400.0 mg/kg/injection, schedule: Q01DX001 (ip), vehicle: saline with Tween-80 87 % of control

Cc1ccc(S(=O)(=O)N2CC3CC2CN3Cc2ccccc2)cc1 (centres undefined)
inactive: [1] 97 % of control | [2] 98 % of control | [3] 97 % of control | [4] 101 % of control | [5] 92 % of control | [6] 106 % of control

O=C1c2ccccc2-c2cc(Cl)cc(Cl)c21
inactive: dose: 100.0 mg/kg/injection, schedule: Q01DX001 (ip), vehicle: carboxymethylcellulose (CMC) 95 % of control | dose: 200.0 mg/kg/injection, schedule: Q01DX001 (ip), vehicle: carboxymethylcellulose (CMC) 96 % of control | dose: 400.0 mg/kg/injection, schedule: Q01DX001 (ip), vehicle: carboxymethylcellulose (CMC) 102 % of control

CC(=O)Nc1cc(Cl)ccc1C(=O)O
inactive: [20] 109 % of control | dose: 100.0 mg/kg/injection, schedule: Q04DX003 (ip), vehicle: other 96 % of control | [21] 98 % of control | dose: 200.0 mg/kg/injection, schedule: Q04DX003 (ip), vehicle: other 90 % of control | [22] 101 % of control | dose: 400.0 mg/kg/injection, schedule: Q04DX003 (ip), vehicle: other 96 % of control

Cc1ccc(SC2CC3CC2C2COCC32)cc1 (centres undefined)
inactive: dose: 50.0 mg/kg/injection, schedule: Q01DX009 (ip), vehicle: Klucel (hydroxypropylcellulose) (HPC) 98 % of control | [1] 98 % of control | [2] 90 % of control | [4] 98 % of control

CC(Br)C(=O)NCC(=O)O (centres undefined)
inactive: [10] 93 % of control | [11] 92 % of control

CC(=O)c1c(C)c(Cl)c(C)c(Cl)c1O
inactive: [1] 101 % of control | [7] 103 % of control and 107 % of control | [3] 104 % of control | [8] 103 % of control and 114 % of control | [5] 90 % of control | [9] 95 % of control and 107 % of control

CCCC/C(=N/NC(N)=O)C(OC)OC
inactive: [20] 92 % of control | [21] 86 % of control | [22] 94 % of control

COC1OC(CI)C(O)C(O)C1O (centres undefined)
inactive: [16] 109 % of control | [17] 109 % of control | [18] 120 % of control

CC(=O)c1ccc(C#N)cc1.[Co+3].[NH2-].[NH2-].[NH2-].[NH2-].[NH2-].[O-][Cl+3]([O-])([O-])O
inactive: dose: 100.0 mg/kg/injection, schedule: Q04DX002 (ip), vehicle: saline 104 % of control | dose: 200.0 mg/kg/injection, schedule: Q04DX002 (ip), vehicle: saline 111 % of control | dose: 400.0 mg/kg/injection, schedule: Q04DX002 (ip), vehicle: saline 108 % of control
